Here are results for six compounds from patent publication US20240307487A1 (priority 2020, published 2024).

Data set [1] relates to parainfluenza virus 3.
The subject of data set [2] is SARS-CoV-2.
The test system of data set [3] is virus-host endosomal acidification. Type of data set: cell-based.
The subject of data set [4] is A(H7N9) virus. Type of data set: binding.
The test system of data set [5] is rhinovirus.
In data set [6] the test system is A(H1N1)pdm09 virus. Type of data set: cell-based.
Data set [7] deals with A(H7N9) virus.
Data set [8] has as its system A(H1N1)pdm09 virus. The class given is binding.
The subject of data set [9] is SARS-CoV. The class given is binding.
Data set [10] addresses H1N1 HA1 protein (Influenza A virus, UniProt C3W5S1).
A short description of data set [11]: in vitro. Particulars: dog.
A short description of data set [12]: in vitro. The settings on record: African green monkey.
For data set [13], the system named is rhinovirus. This is another data set of the same source.
The test system of data set [14] is MERS-CoV.
Data set [15] in a line: in vitro. Particulars: human.
The test system of data set [16] is SARS-CoV-2. Type of data set: binding.
The subject of data set [17] is rhinovirus. Type of data set: binding. Particulars: peptide coated on ELISA plate, bound virus by RT-qPCR. For orientation: Quantitative PCR measures a nucleic acid by following its amplification.
The subject of data set [18] is MERS-CoV. Type of data set: binding.
Data set [19] concerns parainfluenza 3 (Para-3). Type of data set: cell-based. Particulars: 24 h post-infection.
Data set [20] deals with endosomal acidification in MDCK cells. Type of data set: cell-based, canine.
Data set [21] addresses MERS-CoV S protein (Middle East respiratory syndrome-related coronavirus, UniProt K9N5Q8).
For data set [22] the following is noted: in vivo; cited from earlier work.
The test system of data set [23] is SARS-CoV-2. Nature of the data set: microbe, parasite or virus in culture. The class given is cell-based.
The subject of data set [24] is spike-ACE2 mediated cell fusion. Type of data set: cell-based, human.
The subject of data set [25] is SARS-CoV-2. Particulars: cited from earlier work.
The subject of data set [26] is SARS-CoV-2. The settings on record: cited from earlier work. The source holds these as a separate data set.
In data set [27] the test system is SARS-CoV-2. Set-up: species or system hamsters. The settings on record: in vivo.
Data set [28] relates to SARS-CoV. Set-up: species or system mice. The settings on record: in vivo.
Data set [29] deals with SARS-CoV-2. Type of data set: cell-based.
Data set [30] deals with SARS-CoV. Type of data set: cell-based.

≈ marks a conversion by molar mass, not a printed value. Where a name gives a salt, the structure may show the parent alone. Read-outs that look alike come from different tables or passages of the source. Where a SMILES comes first, the peptide text is derived from it.

Sequence of MERS-CoV S protein (K9N5Q8 18-1353 limits assumed): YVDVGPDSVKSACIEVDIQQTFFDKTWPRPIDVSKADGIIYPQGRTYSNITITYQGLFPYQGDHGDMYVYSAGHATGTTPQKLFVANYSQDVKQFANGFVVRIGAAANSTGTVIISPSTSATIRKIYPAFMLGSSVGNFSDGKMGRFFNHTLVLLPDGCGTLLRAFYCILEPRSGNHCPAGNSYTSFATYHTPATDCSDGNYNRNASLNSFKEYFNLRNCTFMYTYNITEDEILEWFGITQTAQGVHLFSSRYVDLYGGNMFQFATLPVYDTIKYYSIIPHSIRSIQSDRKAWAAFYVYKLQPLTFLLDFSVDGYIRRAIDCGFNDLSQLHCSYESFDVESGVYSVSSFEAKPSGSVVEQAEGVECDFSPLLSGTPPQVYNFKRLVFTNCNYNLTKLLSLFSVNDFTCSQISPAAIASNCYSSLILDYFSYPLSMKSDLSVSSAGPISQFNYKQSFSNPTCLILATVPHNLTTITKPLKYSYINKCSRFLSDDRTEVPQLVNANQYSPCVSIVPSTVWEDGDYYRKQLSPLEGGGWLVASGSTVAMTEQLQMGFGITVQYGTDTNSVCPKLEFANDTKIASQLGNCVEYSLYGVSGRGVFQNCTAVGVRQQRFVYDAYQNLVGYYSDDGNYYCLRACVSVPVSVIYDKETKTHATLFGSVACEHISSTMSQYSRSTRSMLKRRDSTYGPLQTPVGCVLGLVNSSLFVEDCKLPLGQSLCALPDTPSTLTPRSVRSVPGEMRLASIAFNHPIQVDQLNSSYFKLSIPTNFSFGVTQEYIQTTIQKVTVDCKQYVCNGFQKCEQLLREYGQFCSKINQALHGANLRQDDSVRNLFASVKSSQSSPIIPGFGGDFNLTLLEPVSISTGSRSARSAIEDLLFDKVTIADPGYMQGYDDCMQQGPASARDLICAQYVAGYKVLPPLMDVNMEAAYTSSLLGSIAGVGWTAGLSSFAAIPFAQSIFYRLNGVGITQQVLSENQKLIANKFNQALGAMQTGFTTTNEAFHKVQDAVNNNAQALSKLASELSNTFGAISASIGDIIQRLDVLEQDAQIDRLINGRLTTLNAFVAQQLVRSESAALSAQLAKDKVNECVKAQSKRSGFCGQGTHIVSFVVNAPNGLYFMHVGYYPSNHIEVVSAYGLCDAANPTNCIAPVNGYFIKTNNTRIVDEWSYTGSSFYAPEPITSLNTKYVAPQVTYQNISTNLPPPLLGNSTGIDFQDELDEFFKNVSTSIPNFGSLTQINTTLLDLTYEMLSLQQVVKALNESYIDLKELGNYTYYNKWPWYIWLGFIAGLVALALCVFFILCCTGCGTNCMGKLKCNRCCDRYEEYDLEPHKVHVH
Sequence of H1N1 HA1 protein (C3W5S1 18-344 limits assumed): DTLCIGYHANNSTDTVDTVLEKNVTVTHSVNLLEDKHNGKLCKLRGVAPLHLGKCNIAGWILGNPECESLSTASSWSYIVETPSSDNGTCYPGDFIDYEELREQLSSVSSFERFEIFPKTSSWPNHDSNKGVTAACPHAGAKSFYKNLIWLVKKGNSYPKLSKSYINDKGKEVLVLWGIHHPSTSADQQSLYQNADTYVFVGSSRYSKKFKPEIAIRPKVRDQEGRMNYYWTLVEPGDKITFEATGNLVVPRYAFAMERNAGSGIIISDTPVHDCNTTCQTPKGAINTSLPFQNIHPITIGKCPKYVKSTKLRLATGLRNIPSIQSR

As for `CC[C@H](C)[C@H](NC(=O)[C@H](C)NC(=O)CNC(=O)[C@@H](N)CC(N)=O)C(=O)N[C@@H](CS)C(=O)N[C@@H](Cc1c[nH]c2ccccc12)C(=O)NCC(=O)N1CCC[C@H]1C(=O)N[C@@H](CS)C(=O)N1CCC[C@H]1C(=O)N[C@H](C(=O)N[C@@H](C)C(=O)N[C@@H](Cc1ccccc1)C(=O)N[C@@H](CCCNC(=N)N)C(=O)N[C@@H](CCC(N)=O)C(=O)N[C@H](C(=O)NCC(=O)N[C@@H](CC(N)=O)C(=O)N[C@@H](CS)C(=O)NCC(=O)N[C@@H](Cc1c[nH]cn1)C(=O)N[C@@H](Cc1ccccc1)C(=O)N[C@@H](CCCCN)C(=O)N[C@H](C(=O)N[C@@H](CCCNC(=N)N)C(=O)N[C@@H](CS)C(=O)N[C@@H](CS)C(=O)N[C@@H](CCCCN)C(=O)N[C@H](C(=O)N[C@@H](CCCNC(=N)N)C(=O)O)[C@@H](C)CC)C(C)C)[C@@H](C)CC)[C@@H](C)O` [P9, reference compound], the “IC50 against parainfluenza virus 3” value in data set [1] was more than 25.0 µg/mL. The “IC50 against SARS-CoV-2” value in [2] stood at 2.4 µg/mL (≈ 0.719 µM).

Take `CC[C@H](C)[C@H](NC(=O)[C@H](C)NC(=O)CNC(=O)[C@@H](N)CC(N)=O)C(=O)N[C@@H](CS)C(=O)N[C@@H](Cc1c[nH]c2ccccc12)C(=O)NCC(=O)N1CCC[C@H]1C(=O)N[C@@H](CS)C(=O)N1CCC[C@H]1C(=O)N[C@H](C(=O)N[C@@H](C)C(=O)N[C@@H](Cc1ccccc1)C(=O)N[C@@H](CCCNC(=N)N)C(=O)N[C@@H](CCC(N)=O)C(=O)N[C@H](C(=O)NCC(=O)N[C@@H](CC(N)=O)C(=O)N[C@@H](CS)C(=O)NCC(=O)N[C@@H](CCCNC(=N)N)C(=O)N[C@@H](Cc1ccccc1)C(=O)N[C@@H](CCCNC(=N)N)C(=O)N[C@H](C(=O)N[C@@H](CCCNC(=N)N)C(=O)N[C@@H](CS)C(=O)N[C@@H](CS)C(=O)N[C@@H](CCCNC(=N)N)C(=O)N[C@H](C(=O)N[C@@H](CCCNC(=N)N)C(=O)O)[C@@H](C)CC)C(C)C)[C@@H](C)CC)[C@@H](C)O` [P9R] (H-NGAICWGPCPTAFRQIGNCGRFRVRCCRIR-OH): the “inhibition of virus-host endosomal acidification” value in data set [3] was “could efficiently inhibit”. In addition, the “binding to A(H7N9) virus” value in data set [4] is “could also bind”. Besides, in data set [5], the “inhibition against rhinovirus compared with P9” value was “significantly stronger inhibition”. In data set [6], the “inhibition against A(H1N1)pdm09 virus compared with P9” value is “significantly stronger inhibition”. The “inhibition against A(H7N9) virus compared with P9” value in data set [7] is “significantly stronger inhibition”. Besides, the “binding to A(H1N1)pdm09 virus” value in data set [8] is listed as “could efficiently bind”. Moreover, in [9], the “binding to SARS-CoV” value is given as “could also bind”. Besides, the “binding to viral proteins: H1N1 HA1 protein” value in data set [10] is “could also bind”. Moreover, the CC50 at 24 h in data set [11], in data set [12] and in [15] was more than 300 µg/mL each time. The “inhibition of viral replication, rhinovirus” value in data set [13] is listed as more than 20 fold. Further, in data set [14], the “inhibition against MERS-CoV compared with P9” value was “significantly stronger inhibition”. In data set [16], the “binding to SARS-CoV-2” value is given as “could efficiently bind”. For the same compound, in data set [17], the binding to rhinovirus result was “could also bind”. In addition, the “binding to MERS-CoV” value in [18] was “could also bind”. In [2], the “IC50 against SARS-CoV-2” value worked out at 0.9 µg/mL (≈ 0.264 µM). In addition, the “parainfluenza 3 viral RNA in LLC-MK2 cells” value in data set [19] was “inhibits parainfluenza 3 in LLC-MK2 cells”. For the same compound, the “inhibition of endosomal acidification (no-virus endosomes)” value in data set [20] is reported as “could more significantly inhibit endosomal acidification”. Moreover, the “binding to viral proteins: MERS-CoV S protein” value in [21] is “could also bind”.

For the compound `CCOC(=O)c1c(CSc2ccccc2)n(C)c2cc(Br)c(O)c(CN(C)C)c12` [arbidol], the peak serum concentration result in [22] was “lower than 2 μg ml-1”. Besides, in data set [23] (Severe acute respiratory syndrome coronavirus 2, Vero C1008, 24 h, read-out: normal IC50 of arbidol against SARS-CoV-2), the IC50 (in general, the concentration that inhibits the measured activity by half) was 3.6 µg/mL (≈ 7.54 µM).

Take `CO/C1=C\C(C)=C\[C@@H](C)[C@@H](O)[C@@H](C)C/C(C)=C/C=C/[C@H](OC)[C@@H]([C@@H](C)[C@@H](O)[C@H](C)[C@@]2(O)C[C@@H](O)[C@H](C)[C@@H](C(C)C)O2)OC1=O` [bafilomycin A1, reference compound]: the “inhibition of virus-host endosomal acidification” value in [3] was “could efficiently inhibit”. Further, the “spike-ACE2 mediated cell membrane fusion” value in [24] is listed as “could inhibit spike-ACE2 mediated cell membrane fusion”.

In the case of `CN(C)C(=O)COC(=O)Cc1ccc(OC(=O)c2ccc(NC(=N)N)cc2)cc1` [camostat, Camostat mesylate], in data set [25], the “SARS-CoV-2 replication in Vero-E6 cells” value is on record as “could not inhibit SARS-CoV-2 replication”. The “SARS-CoV-2 replication in Calu-3 cells” value in data set [26] is “could significantly inhibit SARS-CoV-2 replication in Calu-3 cells”. For the same compound, the “SARS-CoV-2 replication in hamster lungs” value in data set [27] is reported as “could not significantly inhibit SARS-CoV-2 replication in hamsters”. For the same compound, the “SARS-CoV replication in mouse lungs” value in data set [28] is on record as “could not inhibit viral replication”.

Consider `CCN(CC)CCCC(C)Nc1ccnc2cc(Cl)ccc12` (stereo not shown) [chloroquine], for which the “SARS-CoV-2 replication in Calu-3 cells” value in data set [26] is given as “did not inhibit SARS-CoV-2 replication in Calu-3 cells”. Also, the “SARS-CoV-2 replication in hamster lungs” value in [27] was “could not significantly inhibit SARS-CoV-2 replication in hamsters”. Further, the “SARS-CoV-2 replication in Calu-3 cells” value in data set [29] is listed as “not in Calu-3 cells”. The “SARS-CoV replication in mouse lungs” value in data set [28] was “could not inhibit SARS-CoV replication in mouse lungs”. For the same compound, the “enhancement of antiviral activity of arbidol against SARS-CoV” value in data set [30] is “could significantly enhance the antiviral activity of arbidol”. For the same compound, in [23], the “SARS-CoV-2 replication in Vero-E6 cells” value is reported as “could significantly inhibit SARS-CoV-2 replication in Vero-E6 cells” and the “enhancement of antiviral activity of arbidol against SARS-CoV-2” value was “could significantly enhance the antiviral activity of arbidol”.
